Columns and labels:
[1] = system: 4′-Azidocytidine^res replicon; assay: Anti-HCV assay, 4′-azidocytidine resistant replicon; settings: for EC50: Hepatitis C virus, read-out: EC50, 4′-Azidocytidine^res; for fold resistance, 4′-Azidocytidine^res: versus wild-type replicon
[2] = system: VX-950^res and BILN-2061^res replicon; assay: Anti-HCV assay, VX-950 and BILN-2061 double resistant replicon; settings: for EC50: Hepatitis C virus, read-out: EC50, VX-950^res and BILN-2061^res; for fold resistance, VX-950^res and BILN-2061^res: versus wild-type replicon
[3] = system: HuH6 replicons; assay: Anti-HCV replicon assay in HuH6 cells; settings: Hepatitis C virus, HuH-6, read-out: Anti-HCV activity EC50, HuH6
[4] = system: BILN-2061^res replicon; assay: Anti-HCV assay, BILN-2061 resistant replicon; settings: for EC50: Hepatitis C virus, read-out: EC50, BILN-2061^res; for fold resistance, BILN-2061^res: versus wild-type replicon
[5] = system: J6/JFH chimeric HCV reporter virus (J6/JFH-Rluc2a-FLAG); assay: Antiviral assay with HCVcc virus in Huh-Lunet cells; format: cell-based, HCV genotype 2a; settings: for EC50: Hepatitis C virus, 72 h, read-out: Anti-HCV activity EC50, J6/JFH
[6] = Cytostatic assay; format: cell-based; settings: human, HCV replicon-containing cells (Huh 5-2, HuH6 or Huh 9-13)
[7] = system: HCV replicon in Huh 9-13 cells; assay: HCV replicon clearance-rebound assay; format: cell-based; settings: for clearance of replicon, drug alone: 20 × EC50, Huh 9-13; for drug resistant replicon in cells surviving rebound conditions: after treatment, addition of G418, data not shown; for clearance of Huh 9-13 cells from their replicon, drug alone: five times EC50, 3 passages
[8] = system: 2′-C-MeCyt^res replicon; assay: Anti-HCV assay, 2′-C-MeCyt resistant replicon; settings: for EC50: Hepatitis C virus, read-out: EC50, 2′-C-MeCyt^res; for fold resistance, 2′-C-MeCyt^res: versus wild-type replicon
[9] = system: vesicular stomatitis virus (rhabdoviridae); format: cell-based
[10] = system: Punta Toro virus (bunyaviridae); assay: Antiviral assay, Punta Toro virus; format: cell-based; settings: data not shown
[11] = system: herpes simplex virus-2 (G strain, herpesviridae); assay: Antiviral assay, herpes simplex virus-2; format: cell-based; settings: data not shown
[12] = NADPH-dependent metabolic stability in rat hepatic microsomes; format: in vitro ADME
[13] = system: respiratory syncytial virus (paramyxoviridae); assay: Antiviral assay, respiratory syncytial virus; format: cell-based; settings: data not shown
[14] = system: vaccinia virus (poxviridae); assay: Antiviral assay, vaccinia virus; format: cell-based; settings: data not shown
[15] = system: para-influenza-3 virus (paramyxoviridae); assay: Antiviral assay, para-influenza virus; format: cell-based; settings: data not shown
[16] = system: influenza B virus (orthomyxoviridae); assay: Antiviral assay, influenza B virus; format: cell-based; settings: data not shown
[17] = system: influenza A virus (H1N1 and H3N2); assay: Antiviral assay, influenza A virus; format: cell-based; settings: data not shown
[18] = system: feline coronavirus (coronaviridae); assay: Antiviral assay, feline coronavirus; format: cell-based; settings: data not shown
[19] = NADPH-dependent metabolic stability in dog hepatic microsomes; format: in vitro ADME
[20] = Stability in basic and acidic solutions; format: physicochemical
[21] = system: YFV-17D (flaviviridae); format: cell-based, yellow fever virus
[22] = system: bovine viral diarrhea virus (BVDV, flaviviridae); assay: Antiviral assay with BVDV; format: cell-based
[23] = system: HCV subgenomic 1b replicon; assay: Anti-HCV subgenomic replicon assay; format: cell-based
[24] = system: HuH6 replicon-containing cells; assay: Drug combinations in HuH6 cells; format: cell-based, HCV; settings: checkerboard
[25] = system: coxsackie virus B4 (picornaviridae); assay: Antiviral assay, coxsackie virus; format: cell-based; settings: data not shown
[26] = system: herpes simplex virus-1 (KOS strain, TK^− KOS ACV^r); assay: Antiviral assay, herpes simplex virus-1; format: cell-based; settings: data not shown
[27] = system: HIV-2 (ROD, retroviridae); assay: Antiviral assay, HIV-2; format: cell-based; settings: data not shown
[28] = system: reovirus-1 (reoviridae); assay: Antiviral assay, reovirus; format: cell-based; settings: data not shown
[29] = system: sindbis virus (alphaviridae); assay: Antiviral assay, sindbis virus; format: cell-based; settings: data not shown
[30] = NADPH-dependent metabolic stability in human hepatic microsomes; format: in vitro ADME
[31] = system: HIV-1 (IIIB); assay: Antiviral assay, HIV-1; format: cell-based; settings: data not shown
[32] = system: GSK-4^res replicon; assay: Anti-HCV assay, GSK-4 resistant replicon; settings: for EC50: Hepatitis C virus, read-out: EC50, GSK-4^res; for fold resistance, GSK-4^res: versus wild-type replicon
[33] = system: HCV; settings: cited from earlier work
[34] = 300 nM, Huh 9-13, data not shown

SMILES: C[C@@]1(O)[C@H](O)[C@@H](CO)O[C@H]1n1ccc(N)nc1=O [2′-C-MeCyt, 2′-C-Methylcytidine]
- EC50 [1]: 3400 ± 1100 nM
- fold resistance, 4′-Azidocytidine^res [1]: (7.9)
- EC50 [2]: 1000 ± 700 nM
- fold resistance, VX-950^res and BILN-2061^res [2]: (2.3)
- EC50 [3]: 1020 ± 440 nM
- EC50 [4]: 910 ± 1100 nM
- fold resistance, BILN-2061^res [4]: (2.1)
- EC50 [5]: 100 ± 20 nM
- CC50 [6]: ≥ 26 µM
- clearance of replicon, drug alone [7]: failed to achieve clearance
- drug resistant replicon in cells surviving rebound conditions [7]: did not contain drug resistant replicon
- EC50 [8]: ≥ 30000 nM
- fold resistance, 2′-C-MeCyt^res [8]: ⩾81

SMILES: [N-]=[N+]=N[C@]1(CO)O[C@@H](n2ccc(N)nc2=O)[C@H](O)[C@@H]1O [4′-Azidocytidine, 4′-azidocytidine]
- EC50 [1]: ≥ 16000 nM
- fold resistance, 4′-Azidocytidine^res [1]: (⩾5.5)
- EC50 [3]: 7400 ± 3700 nM
- CC50 [6]: > 33 µM
- EC50 [8]: 1200 ± 430 nM
- fold resistance, 2′-C-MeCyt^res [8]: (0.41)

SMILES: COc1ccc2c(O[C@@H]3C[C@H]4C(=O)N[C@]5(C(=O)O)C[C@H]5/C=C\CCCCC[C@H](NC(=O)OC5CCCC5)C(=O)N4C3)cc(-c3csc(NC(C)C)n3)nc2c1 [BILN-2061]
- EC50 [1]: 14 ± 8 nM
- fold resistance, 4′-Azidocytidine^res [1]: (0.93)
- EC50 [2]: 800 ± 80 nM
- fold resistance, VX-950^res and BILN-2061^res [2]: (80)
- EC50 [3]: 4 ± 2 nM
- EC50 [4]: 1300 ± 470 nM
- fold resistance, BILN-2061^res [4]: (130)
- CC50 [6]: ≥ 22 µM
- EC50 [8]: 40 ± 30 nM
- fold resistance, 2′-C-MeCyt^res [8]: (4.0)

SMILES: Fc1cccc(-c2nc3ccn(Cc4cc(-c5ccc(Cl)cc5)no4)cc-3n2)c1F [GS-327073, 5-[[3-(4-chlorophenyl)-5-isoxazolyl]methyl]-2-(2,3-difluorophenyl)-5H-imidazo[4,5-c]pyridine]
- activity against 4′-azidocytidine resistant replicons [1]: retained wild-type activity
- EC50 [1]: 7.2 ± 0.8 nM
- fold resistance, 4′-Azidocytidine^res [1]: (3.6)
- activity against BILN-2061/VX-950 double resistant replicons [2]: retained wild-type activity
- fate of cells containing VX-950/BILN-2061^res replicon under G418 pressure [2, 34]: died following only one passage
- fold resistance, VX-950^res and BILN-2061^res [2]: (2.0)
- EC50 [3]: 50 ± 20 nM
- activity against vesicular stomatitis virus [9]: inactive
- activity against Punta Toro virus [10]: inactive
- activity against herpes simplex virus 2 [11]: inactive
- activity against BILN-2061 resistant replicons [4]: retained wild-type activity
- EC50 [4]: 9 ± 5 nM
- fold resistance, BILN-2061^res [4]: (4.5)
- microsomal half-time ([12]; rat hepatic microsomes, NADPH-dependent): 96 min
- predicted hepatic clearance ([12]; rat microsomes): 0.63 L/h/kg
- activity against respiratory syncitial virus [13]: inactive
- activity against vaccinia virus [14]: inactive
- activity against para-influenza virus [15]: inactive
- activity against influenza virus B [16]: inactive
- EC50 [5]: 330 ± 140 nM
- fold higher EC50 for HCV genotype 2a virus than for 1b replicon ([5]; versus 1b replicon): 100 fold
- activity against influenza virus A [17]: inactive
- activity against feline coronavirus [18]: inactive
- microsomal half-time ([19]; dog hepatic microsomes, NADPH-dependent): 88 min
- predicted hepatic clearance ([19]; dog microsomes): 0.36 L/h/kg
- CC50 [6]: ≥ 17 µM
- stability in acidic solution ([20]; pH 2.2): remained stable
- stability in basic solution ([20]; pH 7.3): remained stable
- activity against yellow fever virus (17D) [21]: inactive
- cross-resistance with BPIP in anti-BVDV assay [22]: cross-resistant
- fold less potent against BVDV than compound 1 ([22]; compared to compound 1): about 10 fold
- selectivity indices ([23]; CC50/EC50): ≥ 340
- EC50 ([23]; Hepatitis C virus, GETYPE1, read-out: mean EC50 values, HCV (genotype 1) subgenomic replicon replication): 2 to 50 nM
- combined antiviral activity with 2′-C-MeCyt [24]: additive antiviral activity
- combined antiviral activity with IFNα 2b [24]: additive antiviral activity
- combined antiviral activity with VX-950 [24]: additive antiviral activity
- combined antiviral activity with low concentrations of IFNα 2b [24]: slight synergistic effect
- combined antiviral activity with ribavirin [24]: additive antiviral activity
- activity against coxsackie virus [25]: inactive
- activity against herpes simplex virus 1 [26]: inactive
- clearance of replicon, drug alone [7]: failed to achieve clearance
- clearance of replicon, combination GS-327073 (5 × EC50) and VX-950 (5 × EC50) ([7]; Huh 9-13): clearance of Huh 9-13 cells from their replicon following one passage
- passages until clearance of replicon RNA, GS-327073 (20 × EC50) with 2′-C-MeCyt (20 × EC50) ([7]; Huh 9-13): 2 passages
- drug resistant replicon in cells surviving rebound conditions [7]: did not contain drug resistant replicon
- clearance of Huh 9-13 cells from their replicon, drug alone [7]: did not achieve complete clearance
- activity against 2′-C-MeCyt resistant replicons [8]: retained wild-type activity
- fate of cells containing 2′-C-MeCyt^res replicon under G418 pressure [8, 34]: died following only one passage
- EC50 [8]: 8 ± 6 nM
- fold resistance, 2′-C-MeCyt^res [8]: (4.0)
- activity against human immunodeficiency virus 2 [27]: inactive
- activity against reovirus [28]: inactive
- activity against sindbis virus [29]: inactive
- microsomal half-time ([30]; human hepatic microsomes, NADPH-dependent): 236 min
- predicted hepatic clearance ([30]; human microsomes): 0.15 L/h/kg
- activity against human immunodeficiency virus 1 [31]: inactive
- activity against GSK-4 resistant replicons [32]: retained wild-type activity
- EC50 [32]: 11 ± 1 nM
- fold resistance, GSK-4^res [32]: (5.5)

SMILES: CNC(=O)c1c(-c2ccc(F)cc2)oc2cc(N(CCO)S(C)(=O)=O)c(C3CC3)cc12 [HCV-796]
- EC50 [3]: 10 ± 3 nM
- EC50 [5]: < 100 nM
- CC50 [6]: > 33 µM
- EC50 [32]: 60 ± 30 nM
- fold resistance, GSK-4^res [32]: (0.75)

SMILES: NC(=O)c1ncn([C@@H]2O[C@H](CO)[C@@H](O)[C@H]2O)n1 [Ribavirin]
- EC50 [3]: 28000 ± 16000 nM
- CC50 [6]: > 33 µM

SMILES: CC(C)(C)NC(=O)N[C@H](C(=O)N1C[C@H]2[C@@H]([C@H]1C(=O)NC(CC1CCC1)C(=O)C(N)=O)C2(C)C)C(C)(C)C (stereo partly drawn) [SCH 503034, (1R,5S)-N-[3-amino-1-(cyclobutylmethyl)-2,3-dioxopropyl]-3-[2(S)-[[[(1,1-dimethylethyl)amino]carbonyl]amino]-3,3-dimethyl-1-oxobutyl]-6,6-dimethyl-3-azabicyclo[3.1.0]hexan-2(S)-carboxamide]
- EC50 [5]: 340 nM
- CC50 [6]: ≥ 7.4 µM

SMILES: CC1CCC(C(=O)N(c2cc(-c3ccccc3)sc2C(=O)O)C2CCC(O)CC2)CC1 (centres unmarked) [VCH-759]
- tolerability in early clinical studies ([33]; HCV-infected patients): generally well-tolerated
- decrease in HCV RNA ([33]; after 10 days of treatment in HCV-infected patients): 2.5 log10

SMILES: CCC[C@H](NC(=O)[C@@H]1[C@H]2CCC[C@H]2CN1C(=O)[C@@H](NC(=O)[C@@H](NC(=O)c1cnccn1)C1CCCCC1)C(C)(C)C)C(=O)C(=O)NC1CC1 [VX-950]
- EC50 [1]: 690 ± 150 nM
- fold resistance, 4′-Azidocytidine^res [1]: (1.2)
- EC50 [2]: 14000 ± 1400 nM
- fold resistance, VX-950^res and BILN-2061^res [2]: (24)
- EC50 [3]: 1400 ± 490 nM
- EC50 [4]: 310 ± 50 nM
- fold resistance, BILN-2061^res [4]: (0.53)
- EC50 [5]: 290 ± 110 nM
- CC50 [6]: ≥ 24 µM
- clearance of Huh 9-13 cells from their replicon, drug alone [7]: did not achieve complete clearance
- EC50 [8]: 1000 ± 30 nM
- fold resistance, 2′-C-MeCyt^res [8]: (1.7)
